Experiments:
[1] = biological target: T1, β5 (Homo sapiens, UniProt P28074); assay: Enzymatic inhibitory activity on β5 (HEK-293 cell lysate, Ac-WLA-AMC substrate); type: biochemical; settings: 1 hour pre-incubation
T1 construct: using HEK-293 cell lysate as the enzyme source of D5; endogenous in cells; host or cells: HEK-293 (human embryonic kidney cells)
In short: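 HEK-293 lysate (25 ng/μl final) preincubated 1 h at 23 °C with compound (9-point, 5-fold dilutions) in 20 mM Tris pH 8.0, 0.5 mM EDTA. Ac-WLA-AMC then added at 20 μM final for 2 h at 23 °C in the dark. AMC fluorescence read at Ex 345/Em 445 nm; IC50 from curve fit.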

[2] = biological target: T2, LMP7 (Homo sapiens, UniProt P28062); assay: Cytological inhibitory activity on LMP7 in MOLT-4 cells; type: cell-based; settings: incubation for 2 hours with compound, read-out: Cytological activity data LMP7 Activity (MOLT-4Cell)
T2 construct: using MOLT-4 cell lysate as the enzyme source of LMP7; endogenous in cells; host or cells: MOLT-4 (human acute lymphoblastic leukemia cells)
In short: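 MOLT-4 cells pre-incubated 2 h with compound (8 concentrations, 5-fold dilution series from 2 mM DMSO stock, 5% FBS), washed and lysed. Lysate (20 ng/μl, 2× stock) reacted with Ac-ANW-AMC (100 μM, 2× stock) in 20 mM Tris pH 8.0, 0.5 mM EDTA, 1 h, 23 °C. Fluorescence at 345/445 nm; IC50 fitted.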

| Structure (SMILES) | IC50 [1] | IC50 [2] |
| --- | --- | --- |
| O=C1COB([C@H](Cc2coc3ccccc23)NC(=O)C(=O)Nc2cnccn2)O1 [Ex. 73] | 20.7 nM | 1.15 nM |
| CC1CC(C)(C)OB([C@H](Cc2coc3ccccc23)NC(=O)C(=O)Nc2cnccn2)O1 (some centres unmarked) [Ex. 67] | 38.2 nM | 0.79 nM |
| O=C(Nc1cnccn1)C(=O)N[C@@H](Cc1coc2ccccc12)B(O)O [Ex. 9, (R)-(2-(benzofuran-3-yl)-1-(2-oxo-2-(pyrazin-2-ylamino)acetamido)ethyl) boronic acid] | 97.5 nM | 4.82 nM |
| O=C(Nc1ccccn1)C(=O)N[C@@H](Cc1coc2ccccc12)B(O)O [Ex. 12] | 283 nM | 3.77 nM |

Results, then the compound that gave them:

| IC50 [1] | IC50 [2] | Structure (SMILES) |
| --- | --- | --- |
| 44.6 nM | 1.58 nM | O=C(Nc1nc2ccccc2s1)C(=O)N[C@@H](Cc1coc2ccccc12)B(O)O [Ex. 27, (R)-(2-(benzofuran-3-yl)-1-(2-oxo-2-((benzo[d]thiazol-2-yl)amino)acetamido)ethyl)boronic acid] |
| 62.9 nM | 1.72 nM | Cc1cnc(NC(=O)C(=O)N[C@@H](Cc2coc3ccccc23)B(O)O)s1 [Ex. 32, (R)-(2-(benzofuran-3-yl)-1-(2-oxo-2-((5-methylthiazol-2-yl)amino)acetamido)ethyl)boronic acid] |
| 61.1 nM | 1.9 nM | O=C(Nc1cc(Cl)ccn1)C(=O)N[C@@H](Cc1coc2ccccc12)B(O)O [Ex. 49, (R)-(2-(benzofuran-3-yl)-1-(2-oxo-2-((4-chloropyridin-2-yl)amino)acetamido)ethyl)boronic acid] |
